In article PMC4310624 (Biochemistry, 2014):

Key:
class A or C enzymes = details: ref unpublished screening work, Bethel and Bonomo; cited from earlier work
[1] = tested on: E. coli DH10B pBCSK SHV-1; assay: Disc diffusion assay, SHV-1 expressing strain; format: cell-based, Escherichia coli; details: for zone size of cephalothin combined with the inhibitor: strain expressing SHV-1
[2] = tested on: E. coli DH10B pBCSK control; assay: Disc diffusion assay, control strain; format: cell-based, Escherichia coli; details: cephalothin 30 μg and 30 μg of each inhibitor, 37 °C, 18 h
[3] = Base hydrolysis in 1 M NaOH followed by Raman spectroscopy; format: physicochemical
SHV-1 = target: T1, SHV-1 (Klebsiella pneumoniae, UniProt P0AD64); details: SHV-1, E/I = 1:10, nitrocefin assay
T1 sequence (P0AD64 22-286): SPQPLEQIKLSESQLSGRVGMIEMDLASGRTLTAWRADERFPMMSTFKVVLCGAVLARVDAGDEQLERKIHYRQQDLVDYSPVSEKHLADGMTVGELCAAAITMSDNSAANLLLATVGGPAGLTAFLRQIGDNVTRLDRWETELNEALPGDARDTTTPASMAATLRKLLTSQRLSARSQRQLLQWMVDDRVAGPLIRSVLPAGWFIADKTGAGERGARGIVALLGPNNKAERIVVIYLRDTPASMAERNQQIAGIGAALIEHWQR

CC1(C)[C@H](C(=O)O)N2C(=O)[C@@H](CO)[C@H]2S1(=O)=O [6α-(hydroxymethyl)penicillanic acid sulfone]
inhibition in the IC50 or MIC assays (class A or C enzymes): did not show any inhibition

CC(=O)OCC1=C(C(=O)O)N2C(=O)[C@@H](NC(=O)Cc3cccs3)[C@H]2SC1 [cephalothin]
zone diameter ([1]; cephalothin 30 μg and 30 μg of each inhibitor, 37 °C, 18 h): 6 mm | zone diameter [2]: 34 mm

CC1(C)[C@H](C(=O)O)N2C(=O)C[C@H]2S1(=O)=O [sulbactam]
time for conversion of imine to cis-enamine ([3]; 1 M NaOH, Raman, all imine converted): 60 min | time to hydrolysis to imine (lactam ring opening, imine maximum) ([3]; 1 M NaOH, room temperature, Raman): less than 3 min | time for iminium ion conversion to cis-enamine ([3]; base hydrolysis, as stated in abstract): 1 h | zone size of cephalothin combined with the inhibitor [1]: 10 mm | enzyme activity against nitrocefin after reaction with inhibitor (SHV-1): remained fully active

C[C@]1(Cn2ccnn2)[C@H](C(=O)O)N2C(=O)C[C@H]2S1(=O)=O [tazobactam]
zone size of cephalothin combined with the inhibitor [1]: 16 mm
